Columns and labels:
HS 578T = details: 48 h
Breast cancer = Breast cancer subpanel
NCI/ADR-RES [1] = experiment: cells; details: Homo sapiens, 48 h; for CC50: read-out: LC50, NCI/ADR-RES, 48 h
SK-OV-3 = details: SK-OV-3, 48 h
MDA-MB-231/ATCC = details: 48 h
HT29 = details: HT29, 48 h
Colon cancer = experiment: NCI-60 SRB screen, subpanel; details: for MG_MID TGI: Colon cancer subpanel; for GI50 / CC50: Homo sapiens; for GI50: read-out: MG_MID GI50; for CC50: read-out: MG_MID LC50
SK-MEL-2 = experiment: NCI-60 SRB screen; details: SK-MEL-2, 48 h; for GI50 / CC50: Homo sapiens; for CC50: read-out: LC50, SK-MEL-2, 48 h
OVCAR-3 = details: OVCAR-3, 48 h
UO-31 = experiment: cells; details: Homo sapiens, UO-31, 48 h; for CC50: read-out: LC50, UO-31, 48 h
HCT-15 = experiment: NCI-60 SRB screen; details: HCT-15, 48 h; for GI50 / CC50: Homo sapiens; for CC50: read-out: LC50, HCT-15, 48 h
NCI-H460 = experiment: NCI-60 SRB screen; details: NCI-H460, 48 h; for GI50 / CC50: Homo sapiens; for CC50: read-out: LC50
Ovarian cancer = Ovarian cancer subpanel
CCRF-CEM = details: 48 h
HL-60(TB) = experiment: NCI-60 SRB screen; details: for TGI / GI50: HL-60(TB), 48 h; for GI50 / CC50: Homo sapiens, HL-60, 48 h; for CC50: read-out: LC50, HL-60(TB), 48 h
CAKI-1 = details: CAKI-1, 48 h
HOP-92 = experiment: NCI-60 SRB screen; details: HOP-92, 48 h; for GI50 / CC50: Homo sapiens; for CC50: read-out: LC50, HOP-92, 48 h
IGROV1 = experiment: NCI-60 SRB screen; details: for GI50 / CC50: Homo sapiens, IGROV-1, 48 h; for GI50 / TGI: IGROV1, 48 h; for CC50: read-out: LC50, IGROV1, 48 h
MDA-MB-435 [2] = details: MDA-MB-435, 48 h
HCT-116 = experiment: cells; details: Homo sapiens, HCT-116, 48 h
Prostate Cancer = Prostate Cancer subpanel
OVCAR-8 [3] = experiment: cells; details: Homo sapiens, OVCAR-8, 48 h; for CC50: read-out: LC50, OVCAR-8, 48 h
A498 = details: A498, 48 h
OVCAR-4 = experiment: cells; details: Homo sapiens, OVCAR-4, 48 h; for CC50: read-out: LC50, OVCAR-4, 48 h
786-0 [4] = experiment: cells; details: Homo sapiens, 786-0, 48 h
NCI-H23 = details: NCI-H23, 48 h
SF-295 = experiment: NCI-60 SRB screen; details: SF-295, 48 h; for GI50 / CC50: Homo sapiens; for CC50: read-out: LC50, SF-295, 48 h
Melanoma [5] = details: Melanoma subpanel
RPMI-8226 = experiment: cells; details: Homo sapiens, RPMI-8226, 48 h; for CC50: read-out: LC50
CNS cancer = experiment: cells; details: Homo sapiens; for GI50: read-out: MG_MID GI50; for CC50: read-out: MG_MID LC50
OVCAR-8 [6] = details: OVCAR-8, 48 h
786-0 [7] = details: 786-0, 48 h
UACC-257 = experiment: cells; details: Homo sapiens, UACC-257, 48 h; for CC50: read-out: LC50, UACC-257, 48 h
Melanoma [8] = experiment: cells; details: Homo sapiens; for GI50: read-out: MG_MID GI50; for CC50: read-out: MG_MID LC50
MDA-MB-435 [9] = experiment: cells; details: Homo sapiens, MDA-MB-435, 48 h; for CC50: read-out: LC50, MDA-MB-435, 48 h
K-562 = experiment: cells; details: Homo sapiens, K562, 48 h; for GI50: K-562, 48 h; for CC50: read-out: LC50
SR = details: 48 h
NCI/ADR-RES [10] = details: 48 h
SF-539 = details: SF-539, 48 h
T-47D = details: 48 h

CCCCC(C(=O)O)N1C(=O)/C(=C/C=C/c2ccc([N+](=O)[O-])o2)SC1=S (stereo not shown) [6b, 2-((Z)-5-((E)-3-(5-nitrofuran-2-yl)allylidene)-4-oxo-2-thioxothiazolidin-3-yl)hexanoic acid]
TGI (HS 578T): 27.4 µM
MG_MID TGI (Breast cancer): 7.71 µM
GI50 (NCI/ADR-RES [1]): 2.24 µM
CC50 (NCI/ADR-RES [1]): 29.3 µM
TGI (SK-OV-3): 19.4 µM
TGI (MDA-MB-231/ATCC): 4.45 µM
TGI (HT29): 3.71 µM
MG_MID TGI (Colon cancer): 3.57 µM
GI50 (Colon cancer): 1.81 µM
CC50 (Colon cancer): 6.66 µM
GI50 (SK-MEL-2): 1.7 µM
CC50 (SK-MEL-2): 6.12 µM
TGI (SK-MEL-2): 3.22 µM
TGI (OVCAR-3): 5.33 µM
GI50 (UO-31): 1.67 µM
CC50 (UO-31): 6.5 µM
TGI (HCT-15): 3.58 µM
GI50 (HCT-15): 1.71 µM
CC50 (HCT-15): 7.47 µM
GI50 (NCI-H460): 1.84 µM
CC50 (NCI-H460): 69.6 µM
TGI (NCI-H460): 3.61 µM
MG_MID TGI (Ovarian cancer): 9.10 µM
TGI (CCRF-CEM): 10.2 µM
TGI (HL-60(TB)): 10.1 µM
GI50 (HL-60(TB)): 2.68 µM
CC50 (HL-60(TB)): > 100 µM
TGI (CAKI-1): 3.29 µM
TGI (HOP-92): 9.85 µM
GI50 (HOP-92): 3.57 µM
CC50 (HOP-92): 42.2 µM
GI50 (IGROV1): 2.16 µM
CC50 (IGROV1): 18 µM
TGI (IGROV1): 4.86 µM
TGI (MDA-MB-435 [2]): 3.95 µM
GI50 (HCT-116): 1730 nM
MG_MID TGI (Prostate Cancer): 10.8 µM
GI50 (OVCAR-8 [3]): 2.12 µM
CC50 (OVCAR-8 [3]): 13.8 µM
TGI (A498): 8.28 µM
GI50 (OVCAR-4): 6.12 µM
CC50 (OVCAR-4): 44.5 µM
GI50 (786-0 [4]): 3.11 µM
TGI (NCI-H23): 3.51 µM
GI50 (SF-295): 2.23 µM
CC50 (SF-295): 13.5 µM
TGI (SF-295): 4.99 µM
MG_MID TGI (Melanoma [5]): 3.59 µM
GI50 (RPMI-8226): 1780 nM
CC50 (RPMI-8226): > 100 µM
GI50 (CNS cancer): 2.01 µM
CC50 (CNS cancer): 12 µM
TGI (OVCAR-8 [6]): 4.86 µM
TGI (786-0 [7]): 9.30 µM
GI50 (UACC-257): 1.93 µM
CC50 (UACC-257): 9.62 µM
GI50 (Melanoma [8]): 1.78 µM
CC50 (Melanoma [8]): 7.07 µM
GI50 (MDA-MB-435 [9]): 1810 nM
CC50 (MDA-MB-435 [9]): 6.61 µM
GI50 (K-562): 2.6 µM
CC50 (K-562): > 100 µM
TGI (SR): 8.66 µM
TGI (NCI/ADR-RES [10]): 5.61 µM
TGI (SF-539): 4.17 µM
TGI (T-47D): 4.03 µM

O=C(O)C(c1ccccc1)N1C(=O)/C(=C/C=C/c2ccc([N+](=O)[O-])o2)SC1=S (stereo not shown) [9b, 2-((Z)-5-((E)-3-(5-Nitrofuran-2-yl)allylidene)-4-oxo-2-thioxothiazolidin-3-yl)-2-phenylacetic acid]
TGI (HS 578T): 35.0 µM
MG_MID TGI (Breast cancer): 22.2 µM
GI50 (NCI/ADR-RES [1]): 13.5 µM
CC50 (NCI/ADR-RES [1]): 84.9 µM
TGI (SK-OV-3): 29.9 µM
TGI (MDA-MB-231/ATCC): 24.2 µM
TGI (HT29): 22.4 µM
MG_MID TGI (Colon cancer): 19.4 µM
GI50 (Colon cancer): 6.75 µM
CC50 (Colon cancer): 66.2 µM
GI50 (SK-MEL-2): 5.64 µM
CC50 (SK-MEL-2): 49.2 µM
TGI (SK-MEL-2): 19.7 µM
TGI (OVCAR-3): 21.4 µM
GI50 (UO-31): 10.8 µM
CC50 (UO-31): 50.7 µM
TGI (HCT-15): 22.9 µM
GI50 (HCT-15): 7.73 µM
CC50 (HCT-15): 59 µM
GI50 (NCI-H460): 11.6 µM
CC50 (NCI-H460): 73.6 µM
TGI (NCI-H460): 29.2 µM
MG_MID TGI (Ovarian cancer): 27.9 µM
TGI (CCRF-CEM): 13.3 µM
TGI (HL-60(TB)): 42.2 µM
GI50 (HL-60(TB)): 14.8 µM
CC50 (HL-60(TB)): > 100 µM
TGI (CAKI-1): 19.7 µM
TGI (HOP-92): 27.5 µM
GI50 (HOP-92): 13.4 µM
CC50 (HOP-92): 56.2 µM
GI50 (IGROV1): 14.3 µM
CC50 (IGROV1): 66.6 µM
TGI (IGROV1): 30.8 µM
TGI (MDA-MB-435 [2]): 13.0 µM
GI50 (HCT-116): 2680 nM
CC50 (HCT-116; read-out: LC50, HCT-116, 48 h): > 100 µM
MG_MID TGI (Prostate Cancer): 26.8 µM
GI50 (OVCAR-8 [3]): 11.1 µM
CC50 (OVCAR-8 [3]): 58.5 µM
TGI (A498): 36.5 µM
GI50 (OVCAR-4): 13.9 µM
CC50 (OVCAR-4): 56.1 µM
GI50 (786-0 [4]): 3.67 µM
TGI (NCI-H23): 31.0 µM
GI50 (SF-295): 17.4 µM
CC50 (SF-295): 58.4 µM
TGI (SF-295): 31.9 µM
MG_MID TGI (Melanoma [5]): 20.0 µM
GI50 (RPMI-8226): 3190 nM
CC50 (RPMI-8226): > 100 µM
GI50 (CNS cancer): 9.99 µM
CC50 (CNS cancer): 48.4 µM
TGI (OVCAR-8 [6]): 25.5 µM
TGI (786-0 [7]): 12.8 µM
GI50 (UACC-257): 13.2 µM
CC50 (UACC-257): 56.1 µM
GI50 (Melanoma [8]): 7.49 µM
CC50 (Melanoma [8]): 48.9 µM
GI50 (MDA-MB-435 [9]): 3040 nM
CC50 (MDA-MB-435 [9]): 40.6 µM
GI50 (K-562): 3.45 µM
CC50 (K-562): > 100 µM
TGI (SR): 18.0 µM
TGI (NCI/ADR-RES [10]): 33.9 µM
TGI (SF-539): 24.7 µM
TGI (T-47D): 39.4 µM

Source: article PMC12655351, “Synthesis and Anticancer Activity Evaluation of New 5-((5-Nitrofuran-2-yl)allylidene)-2-thioxo-4-thiazolidinones” (Pharmaceuticals, 2025)
